Measurements from patent US20240398738A1, “MANIPULATION OF THE RETINOIC ACID SIGNALING PATHWAY” (THE REGENTS OF THE UNIVERSITY OF CALIFORNIA, priority 2017, published 2024).

Experiments:
RGCs in WT retina [1] = experiment: YO-PRO-1 loading assay (dye permeability of RGCs) in WT retina after intravitreal injection; format: in vivo, mouse; conditions: for percentage of YO-PRO-1 positive cells: intravitreal injection 3-7 days before, ATRA 100 nM, liarozole 100 μM, retinaldehyde 1 μM, DEAB 20 μM; for Yo-Pro-1 labeling of WT-RGCs, result in words: WT retina, substance injected intravitreally alone
Description: (§1) Intravitreal Injections. Before injection, mice were anesthetized with isoflurane (2%) and their pupils were dilated with tropicamide (1%) and phenylephrine (2.5%). Proparacaine (0.5%) was used as a topical analgesic. Genteal was applied under a glass coverslip to keep the cornea lubricated. An incision was made through the sclera below the ora serrata with a 30G needle and ˜1 μl of solution was injected into the vitreous with a blunt-ended 33G Hamilton syringe. After injection, the antibiotic tobramycin (0.3%) was applied to the eye. Final drug concentrations after intravitreal injection were: all-trans retinoic acid (ATRA, 100 nM), liarozole (100 μM), diethylaminobenzaldehyde (DEAB, 20 μM), citral (50 μM), BMS-493 (500 nM), and retinaldehyde (1 μM). The above values correspond to the final concentration in the eye after injecting 1 μl of drug accounting for a 5-fold dilution. An injection of PBS including 1% DMSO was used as vehicle control.
(§2) Yo-PRO-1 Loading Assay. After dissection, retinas were cut into thirds and mounted on a windowed nitrocellulose filter paper. Retinas were treated with 200 nM Yo-PRO-1 (Life Technologies) in oxygenated ACSF for 15 minutes, followed by treatment and then treated with nuclear ID (Enzo Life Sciences) at a 1:500 dilution for 3 minutes. ACSF was perfused continuously at 3 ml/min for a period of 5 minutes to wash away excess dye. In experiments employing TNP-ATP (200 μm), the retinas was pretreated with the compound for ten minutes before beginning YO-PRO-1 treatment.
(§3) Image analysis. All image analysis was performed using ImageJ or Fiji software (55,56). Yo-PRO-1 loading assay, ROIs were manually selected using the nuclear-ID channel based upon morphological characteristics. This was performed after computationally flattening the retina by performing a maximum Z projection onto a single plane. Following this, a background subtraction was performed with a rolling radius of 50 pixels. Cells identified as vascular endothelial cells or pericytes were not included in the analysis. This was confirmed using transillumination. A threshold for YO-PRO-1 loading was established by measuring the level of autofluorescence of untreated retinas in each channel and finding a baseline value with +2SD being the threshold for a YO-PRO-1 positive cell. Nuclear-ID was used to count the total number of cells within a field of view. The percentage of cells above the threshold was then calculated for comparison. For analysis of RARE double reporter virus assay, ROIs were manually selected on the RFP channel first and then superimposed to the GFP channel. Single cell values for both RFP and GFP were filtered by using a RFP minimum threshold established in naive unlabeled retinas.
(§4) Injections. Intravitreal injections: Adult mice and rats were intravitreally injected with drugs or viruses. Before injection, animals were anesthetized with isoflurane (2%) and their pupils were dilated with tropicamide (1%) and phenylephrine (2.5%). Proparacaine (0.5%) was used as a topical analgesic. Genteal was applied under a glass coverslip to keep the cornea lubricated. An incision was made through the sclera below the ora serrata with a 30G needle. Solutions were injected into the vitreous with a blunt-ended 33G Hamilton syringe. After injection, the antibiotic tobramycin (0.3%) was applied to the eye. Final drug concentrations (after 5-fold dilution in the vitreous) were: 100 nM all-trans retinoic acid (ATRA), 100 μM liarozole (24), 20 μM diethylaminobenzaldehyde (DEAB) (28,93), 50 μM citral, 500 nM BMS 493 (85), 1 μM retinaldehyde, and vehicle comprising of 1× phosphate buffered saline (PBS) containing 1% dimethyl sulfoxide (DMSO). Intravitreal injections were performed using AAV2 serotype only. WT and rd1 mice were injected with the RAR-reporter virus or the RARDN virus, at age 1-1.5 month-old. WT and s334ter rats were injected with the RAR-reporter virus at age 3-4 month-old. Final volume of injections was 1-1.5 μL for mice and 5 μL for rats. […]

RGCs in rd1 retina [2] = experiment: MEA recording of photoswitch (QAQ, BENAQ) photosensitization in rd1 retina; format: in vivo, mouse; conditions: rd1 retina without BMS-493, mean±SEM
Description: as §1
(§5) Multi Electrode Array Recordings. For extracellular recordings, a flat-mounted retina was placed ganglion cell layer down onto a 60-electrode Multi-Electrode Array (MEA 1060-2-BC, Multi-Channel Systems). After mounting the retina, photoswitches were applied for 30 min, followed by a 15 min wash. BENAQ was applied at a concentration of 100 μM and QAQ at 300 μM. A solution containing a mixture of neurotransmitter receptor blockers isolated RGCs from synaptic inputs: (in μM) 10 AP4, 40 DNQX, 30 AP5, 10 SR-95531, 50 TPMPA, 10 strychnine, and 50 tubocurarine. Extracellular spikes were high-pass filtered at 200 Hz and digitized at 20 kHz and were counted when exceeding 4 SD from the mean background voltage signal. Typically, each electrode recorded spikes from one to three individual RGCs. Principal component analysis of the spike waveforms was used for sorting spikes generated by individual cells (Offline Sorter, Plexon). Stimulation light was generated from a mercury arc lamp. Unfiltered broad spectrum light was used for BENAQ-treated retinas. Narrow band optical filters (Chroma) were used to deliver alternating intervals of 380 nm and 500 nm for stimulation of QAQ-treated as described previously (5,12). The Photoswitch Index (5) (PI) was established for individual retinas in light/darkness for treatment with BENAQ or in 380 nm/500 nm light for treatment with QAQ (11,12).
as §4, with “month-old.” for “month-old. WT and s334ter rats were injected with the RAR-reporter virus at age 3-4 month-old. Final volume of injections was 1-1.5 μL for mice and 5 μL for rats.”

RGCs in WT retina [3] = experiment: MEA recording of photoswitch (QAQ, BENAQ) photosensitization in WT retina; format: in vivo, mouse
Description: as §1, §5
Injections. Intravitreal injections: Adult mice and rats were intravitreally injected with drugs or viruses. Before injection, animals were anesthetized with isoflurane (2%) and their pupils were dilated with tropicamide (1%) and phenylephrine (2.5%). Proparacaine (0.5%) was used as a topical analgesic. Genteal was applied under a glass coverslip to keep the cornea lubricated. An incision was made through the sclera below the ora serrata with a 30G needle. Solutions were injected into the vitreous with a blunt-ended 33G Hamilton syringe. After injection, the antibiotic tobramycin (0.3%) was applied to the eye. Final drug concentrations (after 5-fold dilution in the vitreous) were: 100 nM all-trans retinoic acid (ATRA), 100 μM liarozole (24), 20 μM diethylaminobenzaldehyde (DEAB) (28,93), 50 μM citral, 500 nM BMS 493 (85), 1 μM retinaldehyde, and vehicle comprising of 1× phosphate buffered saline (PBS) containing 1% dimethyl sulfoxide (DMSO). Intravitreal injections were performed using AAV2 serotype only. WT and rd1 mice were injected with the RAR-reporter virus or the RARDN virus, at age 1-1.5 month-old. WT and s334ter rats were injected with the RAR-reporter virus at age 3-4 month-old. Final volume of injections was 1-1.5 μL for mice and 5 μL for rats.
Multi Electrode Array Recordings. Flat-mounted retina was placed ganglion cell layer down onto a 60-electrode Multi-Electrode Array (MEA 1060-2-BC, Multi-Channel Systems). After mounting the retina was left to dark adapt for 20 minutes under constant perfusion with oxygenated saline at 34° C. 300 μM QAQ at was applied for 30 min, followed by a 5 min wash. […]

RGCs in rd1 retina [4] = experiment: YO-PRO-1 loading assay (dye permeability of RGCs) in rd1 retina after intravitreal injection; format: in vivo, mouse; conditions: for Yo-Pro-1 labeling of rd1-RGCs, result in words: rd1, intravitreal injection, compared to vehicle-injected; for percentage of YO-PRO-1 positive cells (fraction of RGC nuclei labeled): rd1 mice, intravitreal injection, measured 3-7 days after, BMS-493 500 nM, DEAB 20 uM, citral 50 uM, mean±SEM
Description: as §1, §2, §3, §4

gap junctions = conditions: micromolar concentrations are required; cited from earlier work

Compound: CC1=C(/C=C/C(C)=C/C=C/C(C)=C/C=O)C(C)(C)CCC1 [Retinaldehyde, retinaldehyde]
- percentage of YO-PRO-1 positive cells (RGCs in WT retina [1]; WT mice, mean±SEM): 14.6±2.29%
- Yo-Pro-1 labeling of WT-RGCs, result in words (RGCs in WT retina [1]): significantly increasing Yo-Pro-1 labeling above baseline

Compound: CCN(Cc1ccccc1)c1ccc(/N=N/c2ccc(NC(=O)C[N+](CC)(CC)CC)cc2)cc1 [BENAQ, benzylethylamino-azobenzene-quaternary ammonium]
- Photoswitch Index (PI) of BENAQ (RGCs in rd1 retina [2]; white light/darkness): 0.56±0.03

Compound: TNP-ATP
- Photoswitch Index (PI) with QAQ, ATRA plus liarozole with TNP-ATP (RGCs in WT retina [3]; WT retina injected with ATRA plus liarozole, TNP-ATP bath-loaded, mean±SEM): 0.19±0.14
- effect on QAQ photosensitization induced by ATRA plus liarozole, in words (RGCs in WT retina [3]; WT retina, TNP-ATP bath-loaded): blocked by TNP-ATP
- percentage of YO-PRO-1 positive cells, ATRA-induced labeling with blocker (RGCs in WT retina [1]; WT mice injected with ATRA, TNP-ATP bath-applied ex vivo or BMS-493 co-injected, mean±SEM): 0.39±0.31%

Compound: Clc1cccc(C(c2ccc3[nH]cnc3c2)n2ccnc2)c1 (stereo not shown) [liarozole]
- QAQ photosensitization of WT retina, in words (RGCs in WT retina [3]; WT retina, 3-7 days after intravitreal injection): Neither ATRA nor liarozole alone enabled significant QAQ photosensitization
- Photoswitch Index (PI) with QAQ (RGCs in WT retina [3]; WT retina, 3-7 days after intravitreal injection, QAQ 300 μM, mean±SEM): 0.27±0.13
- percentage of YO-PRO-1 positive cells (RGCs in WT retina [1]; WT mice, mean±SEM): 8.66±1.36%
- Yo-Pro-1 labeling of WT-RGCs, result in words (RGCs in WT retina [1]): had no effect by itself

Compound: CC(C)=CCCC(C)=CC=O [citral]
- Yo-Pro-1 labeling of rd1-RGCs, result in words (RGCs in rd1 retina [4]): significantly reduced the percentage of rd1-RGCs labeled with Yo-Pro-1
- percentage of YO-PRO-1 positive cells (fraction of RGC nuclei labeled) (RGCs in rd1 retina [4]): 9.87±2.39%

Compound: CCN(CC)c1ccc(C=O)cc1 [DEAB, diethylaminobenzaldehyde]
- Yo-Pro-1 labeling of rd1-RGCs, result in words (RGCs in rd1 retina [4]): significantly reduced the percentage of rd1-RGCs labeled with Yo-Pro-1
- percentage of YO-PRO-1 positive cells (fraction of RGC nuclei labeled) (RGCs in rd1 retina [4]): 19.77±2.32%
- percentage of YO-PRO-1 positive cells, retinaldehyde co-injected with DEAB (RGCs in WT retina [1]; WT mice, co-injection with retinaldehyde, 3-7 days before imaging, mean±SEM): 7.65±1.34%
- percentage of YO-PRO-1 positive cells (RGCs in WT retina [1]; WT mice, mean±SEM): 7.47±1.21%
- Yo-Pro-1 labeling of WT-RGCs, result in words (RGCs in WT retina [1]): caused no change in Yo-Pro-1 labeling

Compound: CC[N+](CC)(CC)CC(=O)Nc1ccc(N=Nc2ccc(NC(=O)C[N+](CC)(CC)CC)cc2)cc1 [QAQ, quaternary ammonium-azobenzene-quaternary ammonium]
- Photoswitch Index (PI) of QAQ (RGCs in rd1 retina [2]; QAQ 300 μM, 380/500 nm): 0.63±0.12

Compound: Cc1ccc(Cl)c(Nc2ccccc2C(=O)O)c1Cl [Meclofenamic acid]
- effect on RGC light responses (gap junctions): augments RGC light responses by reducing hyperactivity
